Laboratory results taken from ChEMBL document CHEMBL5465560, “Selectivity Literature for EUbOPEN Chemogenomic Library” (2024).

Columns and labels:
[1] = target: T1, Testis-specific serine/threonine-protein kinase 3 (Homo sapiens) (UniProt Q96PN8); test: Selectivity interaction (KinomeScan (DiscoverX)) EUB0000229b TSSK3; conditions: at 10 µM
T1 sequence (whole entry): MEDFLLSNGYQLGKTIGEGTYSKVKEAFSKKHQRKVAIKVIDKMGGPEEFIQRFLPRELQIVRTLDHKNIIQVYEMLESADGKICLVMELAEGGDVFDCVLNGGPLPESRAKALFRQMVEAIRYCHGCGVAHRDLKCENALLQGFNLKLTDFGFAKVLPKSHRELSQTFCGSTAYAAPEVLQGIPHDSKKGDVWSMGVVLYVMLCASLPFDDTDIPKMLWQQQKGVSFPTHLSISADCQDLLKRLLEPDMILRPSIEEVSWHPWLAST

[2] = target: T2, Ribosomal protein S6 kinase delta-1 (Homo sapiens) (UniProt Q96S38); test: Selectivity interaction (ActivX KiNativ screen (ex vivo kinase selectivity in human PBMCs)) EUB0001619a RPS6KC1; type: cell-based; conditions: PBMC, at 1 µM
T2 sequence (whole entry): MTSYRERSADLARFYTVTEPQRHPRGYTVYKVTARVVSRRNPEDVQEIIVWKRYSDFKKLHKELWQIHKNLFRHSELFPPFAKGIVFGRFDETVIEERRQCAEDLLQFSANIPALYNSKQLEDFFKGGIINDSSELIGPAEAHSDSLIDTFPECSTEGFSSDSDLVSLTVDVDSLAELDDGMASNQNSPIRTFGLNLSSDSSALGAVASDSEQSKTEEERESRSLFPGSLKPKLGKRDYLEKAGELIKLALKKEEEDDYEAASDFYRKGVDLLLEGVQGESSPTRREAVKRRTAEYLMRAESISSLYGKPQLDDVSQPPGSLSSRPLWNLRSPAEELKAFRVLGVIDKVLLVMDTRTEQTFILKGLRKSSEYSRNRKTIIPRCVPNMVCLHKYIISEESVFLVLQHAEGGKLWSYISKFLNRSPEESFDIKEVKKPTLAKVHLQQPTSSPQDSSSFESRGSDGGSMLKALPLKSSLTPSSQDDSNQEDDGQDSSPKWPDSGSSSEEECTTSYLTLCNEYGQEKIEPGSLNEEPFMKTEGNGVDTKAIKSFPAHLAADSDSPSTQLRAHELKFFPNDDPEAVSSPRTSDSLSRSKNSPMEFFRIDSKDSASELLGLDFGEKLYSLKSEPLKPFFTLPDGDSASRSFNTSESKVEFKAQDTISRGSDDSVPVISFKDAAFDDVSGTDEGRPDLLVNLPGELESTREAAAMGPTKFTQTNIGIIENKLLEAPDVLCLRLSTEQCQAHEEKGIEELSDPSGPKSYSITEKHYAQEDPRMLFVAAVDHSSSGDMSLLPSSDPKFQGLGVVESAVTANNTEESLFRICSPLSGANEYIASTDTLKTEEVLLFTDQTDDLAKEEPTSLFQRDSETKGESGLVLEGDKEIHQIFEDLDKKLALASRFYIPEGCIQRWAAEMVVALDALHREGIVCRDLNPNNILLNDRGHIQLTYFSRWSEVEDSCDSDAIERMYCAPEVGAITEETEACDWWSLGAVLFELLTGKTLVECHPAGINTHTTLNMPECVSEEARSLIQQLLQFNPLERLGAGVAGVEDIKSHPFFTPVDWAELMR

[3] = target: T3, Dual specificity tyrosine-phosphorylation-regulated kinase 2 (Homo sapiens) (UniProt Q92630); test: Selectivity interaction (KinomeScan (DiscoverX)) EUB0000607a DYRK2; conditions: at 10 µM
T3 sequence (whole entry): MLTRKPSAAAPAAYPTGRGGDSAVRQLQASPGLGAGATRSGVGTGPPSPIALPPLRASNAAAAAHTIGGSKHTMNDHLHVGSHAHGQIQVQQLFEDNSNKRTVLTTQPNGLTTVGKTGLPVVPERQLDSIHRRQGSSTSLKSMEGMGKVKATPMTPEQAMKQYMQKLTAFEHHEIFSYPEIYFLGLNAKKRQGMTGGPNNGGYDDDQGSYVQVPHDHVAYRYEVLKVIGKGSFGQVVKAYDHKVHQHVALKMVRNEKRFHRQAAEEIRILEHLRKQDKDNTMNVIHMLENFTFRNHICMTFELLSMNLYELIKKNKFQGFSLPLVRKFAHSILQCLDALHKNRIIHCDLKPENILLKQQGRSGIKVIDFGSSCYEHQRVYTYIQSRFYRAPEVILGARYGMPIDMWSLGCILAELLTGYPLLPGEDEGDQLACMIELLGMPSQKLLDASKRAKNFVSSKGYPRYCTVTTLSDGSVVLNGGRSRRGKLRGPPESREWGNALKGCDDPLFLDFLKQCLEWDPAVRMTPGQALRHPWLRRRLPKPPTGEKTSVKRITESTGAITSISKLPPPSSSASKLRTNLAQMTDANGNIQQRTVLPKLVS

[4] = target: T4, Serine/threonine-protein kinase 17A (Homo sapiens) (UniProt Q9UEE5); test: Selectivity interaction (KinomeScan (DiscoverX)) EUB0000092b STK17A; conditions: at 10 µM
T4 sequence (whole entry): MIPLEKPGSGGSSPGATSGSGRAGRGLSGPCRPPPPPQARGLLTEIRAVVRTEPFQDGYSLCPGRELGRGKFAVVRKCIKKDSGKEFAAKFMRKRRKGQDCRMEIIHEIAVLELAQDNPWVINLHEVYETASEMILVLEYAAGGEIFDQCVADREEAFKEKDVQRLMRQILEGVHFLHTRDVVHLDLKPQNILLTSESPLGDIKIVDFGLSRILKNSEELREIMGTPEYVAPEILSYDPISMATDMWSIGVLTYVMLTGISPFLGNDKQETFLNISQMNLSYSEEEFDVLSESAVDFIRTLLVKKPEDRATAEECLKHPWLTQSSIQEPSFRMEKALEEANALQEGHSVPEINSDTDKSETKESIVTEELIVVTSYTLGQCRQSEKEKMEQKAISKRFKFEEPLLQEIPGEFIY

COc1cc(N(C)c2ccnc3ccc(C(F)(F)F)cc23)cc(OC)c1OC
% binding [1]: 81%

N#Cc1cccc(-c2c[nH]c3ncnc(N4CCOCC4)c23)c1
% of inhibition [2]: -2%

CNC(=O)Nc1ccc(-c2nc(N3CC4CCC(C3)O4)c3cnn(C4CCC5(CC4)OCCO5)c3n2)cc1
% of control [3]: 90%

CCC(=O)N1CCN(c2ccc(-n3c(=O)ccc4cnc5ccc(-c6cnc7ccccc7c6)cc5c43)cc2C(F)(F)F)CC1
% of control [4]: 93%
